Experimental data reported in patent US8426447B2, “Spiro-tricyclic ring compounds as beta-secretase modulators and methods of use” (Amgen Inc., priority 2008, dated 2013).
pIC50: −log10 of the molar value.

What was measured:
BACE1 [1] = target: T1, BACE1 (Homo sapiens, UniProt P56817); assay: In Vitro Enzymatic BACE FRET (Fluorescence Resonance Energy Transfer) Assay; assay type: biochemical; conditions: read-out: BACE1 FRET assay; for IC50: Table III, IC50's in uM ranges
In short: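 Buffer 0.05 M acetate pH 4.2 with 10% DMSO final and 100 uM genapol; reaction started with 50 nM FRET peptide substrate (fluorophore/quencher flanking BACE cleavage site), incubated one hour. Stopped with Tris buffer raising pH to neutrality, then fluorescence read.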

BACE1 [2] = target: T1, BACE1; assay: In Vitro BACE Cell-based Assay (HEK cell assay): Aβ40 in conditioned medium of cells stably expressing Amyloid Precursor Protein, sandwich ELISA; conditions: read-out: HEK cell assay; for IC50: Table III, IC50's in uM ranges
In short: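 APP-expressing cells were cultured 24 h in DMEM/10% FBS, then treated 24 h with compounds in 10-point dose response (top 100 μM or 10 μM; 0.1% DMSO final). Secreted Aβ40 was quantified by sandwich ELISA (pAb40 capture, biotinylated 6E10 detection, Europium TRF); IC50 from percent inhibition versus concentration.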

[3] = in vitro BACE FRET enzyme assay, IC50 class symbols
[4] = HEK cell-based assay, Aβ40 in conditioned medium, IC50 class symbols

T1 sequence (P56817 46-501, species assumed): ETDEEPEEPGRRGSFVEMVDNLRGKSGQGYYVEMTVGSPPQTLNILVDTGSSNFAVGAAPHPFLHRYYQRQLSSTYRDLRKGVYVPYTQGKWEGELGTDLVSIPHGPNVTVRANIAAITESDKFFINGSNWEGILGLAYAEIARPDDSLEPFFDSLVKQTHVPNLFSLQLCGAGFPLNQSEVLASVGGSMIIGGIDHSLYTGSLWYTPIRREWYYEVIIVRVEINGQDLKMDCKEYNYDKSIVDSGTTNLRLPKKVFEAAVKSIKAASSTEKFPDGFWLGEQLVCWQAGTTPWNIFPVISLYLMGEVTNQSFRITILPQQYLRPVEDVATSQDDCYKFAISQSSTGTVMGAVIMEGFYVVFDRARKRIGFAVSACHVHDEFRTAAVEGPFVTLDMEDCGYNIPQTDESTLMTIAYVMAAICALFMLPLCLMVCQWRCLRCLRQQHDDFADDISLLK

Cc1cncc(-c2ccc3c(c2)[C@@]2(COC(N)=N2)c2cc(OCC(C)(C)O)ccc2O3)c1 [compound 223]
IC50 (BACE1 [1]): < 0.1 µM
IC50 (BACE1 [2]): < 0.1 µM

CCCOc1ccc2c(c1)[C@]1(COC(N)=N1)c1cc(-c3cncnc3)ccc1O2 [Example 5, (4S)-2′-propoxy-7′-(5-pyrimidinyl)spiro[1,3-oxazole-4,9′-xanthen]-2-amine]
pIC50 (BACE1 [1]; Table 1): > 7.00
pIC50 (BACE1 [2]; Table 1, Aβ40, 24 h incubation): > 7.00

CC(C)(C)C#Cc1ccc2c(c1)[C@]1(COC(N)=N1)c1cc(-c3ccc(F)nc3)ccc1O2 [147a]
IC50 (BACE1 [1]): < 0.1 µM
IC50 (BACE1 [2]): 0.1 to 1 µM

CC(C)(O)C#Cc1cnc2c(c1)[C@@]1(COC(N)=N1)c1cc(C#CC3CC3)ccc1O2 [compound 705]
pIC50 (BACE1 [1]): < 5.30
pIC50 (BACE1 [2]): < 5.30

CCOCC(=O)Nc1ccc2c(c1)[C@@]1(COC(N)=N1)c1cc(OC)ccc1O2 [compound 376]
pIC50 (BACE1 [1]; [3]): 6.00 to 7.00
pIC50 (BACE1 [2]; [4]): 6.00 to 7.00

CC(C)(F)COc1ccc2c(c1)[C@]1(COC=N1)c1cc(Br)c(N)nc1O2 [compound 171]
IC50 (BACE1 [1]): 0.1 to 1 µM
IC50 (BACE1 [2]): 1 to 5 µM

CCCOc1cc2c(cc1F)Oc1ccc(-c3ccc(F)nc3)cc1[C@]21COC(N)=N1 [compound 921]
pIC50 (BACE1 [1]; Table IV, class symbols): 6.00 to 7.00
pIC50 (BACE1 [2]; Table IV, class symbols): 5.30 to 6.00

NC1=NC2(CO1)c1cc(-c3cncnc3)ccc1Oc1ccc(-c3cncnc3)cc12 [compound 137]
IC50 (BACE1 [1]): < 0.1 µM
IC50 (BACE1 [2]): 0.1 to 1 µM

CC(C)(C)COc1ccc2c(c1)[C@]1(COC(N)=N1)c1cc(C(=O)N3CCC3)ccc1O2 [compound 608]
pIC50 (BACE1 [1]; Table IV, class symbols): 6.00 to 7.00
pIC50 (BACE1 [2]; Table IV, class symbols): 6.00 to 7.00

N#Cc1ccccc1-c1ccc2c(c1)[C@]1(COC(N)=N1)c1cc(-c3cccnc3)ccc1O2 [compound 962]
pIC50 (BACE1 [1]): > 7.00
pIC50 (BACE1 [2]): 6.00 to 7.00

CC(C)(C)COc1ccc2c(c1)[C@]1(COC(N)=N1)c1cc(-c3csc(-n4ccnc4)n3)ccc1O2 [compound 214]
IC50 (BACE1 [1]): 0.1 to 1 µM
IC50 (BACE1 [2]): 1 to 5 µM

COc1ccc2c(c1)[C@]1(COC(N)=N1)c1cc(NC(=O)c3cc(Cl)ccn3)ccc1O2 [compound 534]
pIC50 (BACE1 [1]; Table IV, class symbols): 5.30 to 6.00
pIC50 (BACE1 [2]; Table IV, class symbols): < 5.30

NC1=N[C@]2(CO1)c1cc(-c3cccnc3)ccc1Oc1ncc(-c3cccnc3)cc12 [compound 157]
IC50 (BACE1 [1]): < 0.1 µM
IC50 (BACE1 [2]): < 0.1 µM

CC(C)(F)COc1cc2c(cc1F)Oc1ccc(-c3cccnc3)cc1[C@@]21COC(N)=N1 [compound 353, (4S)-3′-fluoro-2′-(2-fluoro-2-methylpropoxy)-7′-(3-pyridinyl)spiro[1,3-oxazole-4,9′-xanthen]-2-amine]
pIC50 (BACE1 [1]; [3]): > 7.00
pIC50 (BACE1 [2]; [4]): > 7.00

COC(C)(C)C#Cc1ccc2c(c1)[C@]1(COC(N)=N1)c1cc(-c3cccnc3)ccc1O2 [compound 201]
IC50 (BACE1 [1]): < 0.1 µM
IC50 (BACE1 [2]): < 0.1 µM

NC1=N[C@@]2(CO1)c1cnccc1Oc1ccc(-c3cccnc3)cc12 [compound 556]
pIC50 (BACE1 [1]; Table IV, class symbols): 6.00 to 7.00
pIC50 (BACE1 [2]; Table IV, class symbols): 6.00 to 7.00

CC(C)(C)COc1ccc2c(c1)[C@]1(COC(N)=N1)c1cc(C3CCCC3)ccc1O2 [compound 701]
pIC50 (BACE1 [1]): > 7.00
pIC50 (BACE1 [2]): 5.30 to 6.00

CCOC(C)(C)COc1ccc2c(c1)[C@]1(COC(N)=N1)c1cc(-c3cncnc3)ccc1O2 [compound 170]
IC50 (BACE1 [1]): < 0.1 µM
IC50 (BACE1 [2]): < 0.1 µM

CCCOc1cc2c(cc1F)Oc1ccc(-c3cncnc3)cc1[C@]21COC(N)=N1 [compound 941]
pIC50 (BACE1 [1]): 6.00 to 7.00
pIC50 (BACE1 [2]): 5.30 to 6.00

CC(C)(C#N)COc1ccc2c(c1)[C@]1(COC(N)=N1)c1cc(-c3cccnc3)cnc1O2 [compound 168]
IC50 (BACE1 [1]): < 0.1 µM
IC50 (BACE1 [2]): < 0.1 µM

CN(C)CCOc1ccc2c(c1)[C@]1(COC(N)=N1)c1cc(-c3cccnc3)ccc1O2 [compound 886]
pIC50 (BACE1 [1]; Table IV, class symbols): 6.00 to 7.00
pIC50 (BACE1 [2]; Table IV, class symbols): > 7.00

NC1=N[C@@]2(CO1)c1cc(-c3cncnc3)ccc1Oc1ncc(C#CC3CC3)cc12 [compound 742]
pIC50 (BACE1 [1]): > 7.00
pIC50 (BACE1 [2]): > 7.00

Cn1cc(-c2cc(F)c3c(c2)[C@]2(COC(N)=N2)c2cc(-c4cccnc4)ccc2O3)cn1 [compound 509, (4S)-4′-fluoro-2′-(1-methyl-1H-pyrazol-4-yl)-7′-(3-pyridinyl)spiro[1,3-oxazole-4,9′-xanthen]-2-amine]
pIC50 (BACE1 [1]): > 7.00
pIC50 (BACE1 [2]; HEK cells): > 7.00

COc1ccc(-c2ccc3c(c2)[C@]2(COC(N)=N2)c2cc(-c4cncnc4)ccc2O3)cn1 [compound 829]
pIC50 (BACE1 [1]; Table IV, class symbols): > 7.00
pIC50 (BACE1 [2]; Table IV, class symbols): > 7.00

NC1=NC2(CO1)c1cnc(Cl)cc1Oc1ccc(-c3cccnc3)cc12 (stereo not drawn) [compound 727]
pIC50 (BACE1 [1]): 5.30 to 6.00
pIC50 (BACE1 [2]): < 5.30

CC(C)(C)C[C@@H](F)c1ccc2c(c1)[C@]1(COC(N)=N1)c1cc(-c3cncnc3)ccc1O2 [116b, (4S)-2′-((1R)-1-fluoro-3,3-dimethylbutyl)-7′-(5-pyrimidinyl)spiro[1,3-oxazole-4,9′-xanthen]-2-amine]
IC50 (BACE1 [1]): < 0.1 µM
IC50 (BACE1 [2]): 0.1 to 1 µM

COc1ccc2c(c1)[C@]1(COC(N)=N1)c1cc(-c3cccc4cnccc34)ccc1O2 [compound 588]
pIC50 (BACE1 [1]; Table IV, class symbols): 6.00 to 7.00
pIC50 (BACE1 [2]; Table IV, class symbols): 5.30 to 6.00
